Assay results taken from patent publication US20170240543A1, “CRYSTALLINE FORMS OF PALBOCICLIB” (Sun Pharmaceutical Industries Limited, priority 2014, published 2017).

What was measured:
[1] = Specific surface area (Micromeritic Gemini VII 2390 Surface Analyzer); format: physicochemical
Procedure: Specific surface area was determined using a Micromeritic® Gemini® VII 2390 Surface Analyzer (Software: Gemini VII, version 1.03).

[2] = Filterability, electrostatic nature and flowability of the solid; format: physicochemical; details: no comparator stated

Q: Which “specific surface area (SSA)” value [1] does the source give for `CC(=O)c1c(C)c2cnc(Nc3ccc(N4CCNCC4)cn3)nc2n(C2CCCC2)c1=O` [Form V-A, 6-acetyl-8-cyclopentyl-5-methyl-2-[[5-(1-piperazinyl)-2-pyridinyl]amino]pyrido[2,3-d]pyrimidin-7(8H)-one] here?
A: The value was “greater than 2 m^2/g”.

Q: What about the “filterability, electrostatic nature, and flowability” value [2] of the same compound?
A: The value was “improved”.
